Read-outs that look alike come from different tables or passages of the source.
Legend:
[1] = solubility; type: physicochemical
[2] = test system: Pseudomonas solanacearum; type: in vivo; settings: 0 no control, 4 complete control
[3] = test system: Ascaris lumbricoides var. suum; test: medicated feed, mice infected with Ascaris ova, lung lesions; type: in vivo; settings: Example 13, mice, 0.05 percent in diet; control 2.66
Description: The feeds were utilized as diets for separate groups of mice, five mice per group. Above twelve hours after initiation of the feeding, the mice were infected with Ascaris lumbricoides var. suum ova. Another group of five mice were fed the non-medicated feed to serve as a control but was similarly infected at the same time with Ascaris lumbricoides var. suum. All groups were fed their respective feed and maintained under normal laboratory conditions for a period of eight days, at which time all mice were taken off feed. On the ninth day, all mice were sacrificed and the lungs examined to determine the presence, and if present, numbers, of lesions of Ascaris lumbricoides var. suum.
Another evaluation was conducted under the procedures reported in Example 11, except that the rates were varied. The results were as follows:
In a further evaluation, the monoammonium salts of A16886I and A16886II were separately evaluated for the control of Ascaris lumbricoides var. suum. The evaluations were conducted in accordance with the procedure reported in Example 11 at a concentration in the diet of 0.05 percent.

[4] = test system: Xanthomonas vesicatoria; test: field trial, bacterial spot control on tomato plants; type: in vivo
Description: (§1) A mixture of the monoammonium salt of A16886I and the monoammonium salt of A16886II was tested under field conditions for the control of Xanthomonas vesicatoria (bacterial spot) on mature bearing tomato plants. The mixture of the two salts was dispersed in water at a concentration of 100, 200, or 400 parts per million and applied to the plants at the rate of 75 gallons per acre. Application was made with a CO2 sprayer at 50 psi. Plants were sprayed twice, on successive days; after the second spray had dried, all plants were wounded by sand blasting and then within one minute the plants were inoculated with a bacterial inoculum of Xanthomonas vesicatoria. Three days later, a third spray application of the aqueous formulation of A16886 was made. Readings were made one week and two weeks after the last spray treatment. Controls consisted of groups of plants (1) sand blasted and inoculated; (2) sand blasted only; (3) untreated; and (4) treated with streptomycin (on the same three-day spraying schedule, at a concentration of 100, 200, or 400 parts per million of aqueous solution, using a rate of 75 gallons per acre), sand blasted, and inoculated. The results were as set forth in the following table, in which crop injury is reported on a scale of 0-10, with 0=no injury and 10=dead plants; and control of bacterial spot is reported on a percentage basis.

[5] = test system: tomato plants; test: field trial, crop injury; type: in vivo; settings: 0=no injury, 10=dead plants
Description: as §1

[6] = in acetonitrile and other organic solvents

For COC1(NC(=O)CCCC(N)C(=O)O)C(=O)N2C(C(=O)O)=C(COC(N)=O)CS[C@@H]21 (stereo partly drawn) [A16886I, 7-(5-amino-5-carboxyvaleramido)-3-(carbamoyloxymethyl)-7-methoxy-3-cephem-4-carboxylic acid], the solubility [1, 6] was “essentially insoluble”, the solubility ([1]; in lower alkanols) was “slightly soluble” and the solubility ([1]; in water) was “very soluble”. For the same molecule, the “Disease Rating” value ([2]; Example 7, 10 ppm.) was 2, the “Disease Rating” value ([2]; Example 7, 100 ppm.) was 4 and the rating ([2]; Example 8, 100 ppm.) was 4. The rating ([2]; Example 8, 200 ppm.) was 4, the rating ([2]; Example 8, 400 ppm.) was 4 and the “Average Number of Lung Lesions Per Group” value [3] was 0.46.
In the case of NC(=O)OCC1=C(C(=O)O)N2C(=O)C(NC(=O)CCCC(N)C(=O)O)[C@H]2SC1 (stereo partly drawn) [A16886II, 7-(5-amino-5-carboxyvaleramido)-3-(carbamoyloxymethyl)-3-cephem-4-carboxylic acid], the solubility [1, 6] is reported as “essentially insoluble”, the solubility ([1]; in lower alkanols) is reported as “slightly soluble” and the solubility ([1]; in water) is reported as “very soluble”. For the same molecule, the “Disease Rating” value ([2]; Example 7, 10 ppm.) was 1, the “Disease Rating” value ([2]; Example 7, 100 ppm.) was 4 and the “Average Number of Lung Lesions Per Group” value [3] was 0.20.
With [H]/N=C(/N)N[C@H]1[C@H](O)[C@@H](O)[C@H](O[C@@H]2O[C@@H](C)[C@](O)(C=O)[C@H]2O[C@@H]2O[C@@H](CO)[C@H](O)[C@@H](O)[C@@H]2NC)[C@@H](N/C(N)=N\[H])[C@@H]1O [Streptomycin] the “Percent Bacterial Spot Control” value ([4]; 100 ppm, First Reading) was 83%, the “Percent Bacterial Spot Control” value ([4]; 100 ppm, Second Reading) was 57% and the “Percent Bacterial Spot Control” value ([4]; 200 ppm, First Reading) was 81%. The “Percent Bacterial Spot Control” value ([4]; 200 ppm, Second Reading) was 37%, the “Percent Bacterial Spot Control” value ([4]; 400 ppm, First Reading) was 83% and the “Percent Bacterial Spot Control” value ([4]; 400 ppm, Second Reading) was 59%. For the same molecule, the “Crop Injury Ratings” value ([5]; 100 ppm, First Reading) was 0, the “Crop Injury Ratings” value ([5]; 100 ppm, Second Reading) was 0 and the “Crop Injury Ratings” value ([5]; 200 ppm, First Reading) was 0. For the same molecule, the “Crop Injury Ratings” value ([5]; 200 ppm, Second Reading) was 0, the “Crop Injury Ratings” value ([5]; 400 ppm, First Reading) was 0 and the “Crop Injury Ratings” value ([5]; 400 ppm, Second Reading) was 0.

— patent publication US4173702A, “7-(5-Amino-5-carboxyvaler-amido)-3-(carbamoyloxymethyl)-7-methoxy-3-cep hem-4-carboxylic acid” (Eli Lilly and Company, priority 1970, dated 1979)
